The results in this text go back to PMC7600788, “Sequence Permutation Generates Peptides with Different Antimicrobial and Antibiofilm Activities” (Pharmaceuticals, 2020).

No end group written: not given here.

Series [1] relates to monkey kidney Vero E6 cells. The series is classed as cell-based. The procedure, abridged: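 HaCaT cells and PMA-differentiated THP-1 macrophages (30 ng/mL PMA, 16 h) seeded at 3 × 10^4/well; Vero E6 cells grown in EMEM. Peptides applied at varying concentrations in serum-free medium for one hour. Viability read by MTS reduction (2 h, 37 °C), absorbance at 492 nm.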
Series [2] relates to S. aureus Mu50. The series is classed as cell-based, Staphylococcus aureus. The conditions noted are these: Mu50. A digest of the protocol: (§1)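 Broth microdilution: log-phase cultures diluted to OD600 ~0.001 were treated with two-fold peptide dilutions and incubated overnight at 37 °C, then read at 630 nm. MBC was the lowest concentration giving no growth when wells at or above MIC were plated.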

The subject of series [3] is A. baumannii B28-16. The series is classed as cell-based, Acinetobacter baumannii. The conditions noted are these: B28-16. A digest of the protocol:
as §1

The subject of series [4] is E. coli ML35p. Kind of series: Simultaneous outer and inner membrane permeation (nitrocefin / ONPG). The series is classed as cell-based, Escherichia coli. The settings on record: 3.1 µM. An excerpt:
To confirm the mechanism of action, we also performed membrane permeation using a reporter strain of E. coli ML35p. This strain enabled simultaneous monitoring of membrane permeation of both the inner and outer membranes of Gram-negative bacterium E. coli. Both WW295 and WW298 were included in the experiment. […] This is indicated by the sharp development of absorbance at 490 nm for nitrocefin (panel A) and at 420 nm for ONPG (panel B).
The E. coli ML-35p strain was utilized to probe the permeation of both the outer membrane (OM) and inner membrane (IM). This strain was engineered to have two membrane reporters. Nitrocefin is used for detection of OM permeabilization. Nitrocefin is excluded from the periplasm. […] The chromogenic cleavage product was spectrophotometrically monitored at 490 nm. […] However, permeabilization of the IM helps ONPG to enter cytoplasm and get cleaved by cytoplasmic β-galactosidase into o-nitrophenol, which can be detected spectrophotometrically at 420 nm. […] Absorbances at both 490 and at 420 nm were monitored using FLUOstar Omega (BMG, Labtech, NC, USA) simultaneously. After shaking at 100 rpm, readings were taken every 2 min for a total of 40 min at 37 °C. Data were analyzed using the MARS data analysis software provided by the manufacturer and representative plots were made using the GraphPad Prism 7 software.

The subject of series [5] is E. coli ATCC 25922. Nature of the series: Propidium iodide membrane permeation assay. The settings on record: peptide 3.1 µM, read every 5 min for 2 h. The series is classed as cell-based, Escherichia coli. As to the method:
Although not general, cationic antimicrobial peptides frequently target bacterial membranes. A fluorescence-based assay was performed for the determination the membrane active nature of peptides. A rapid increase in the fluorescence was detected as a consequence of peptide treatment at 3.1 µM, indicating membrane damage (Figure 3).
The experiment was performed as previously described with minor modifications. Serially diluted 10× peptides (10 μL each well) were created in 96-well microtiter plates. Propidium iodide (2 μL) at a fixed concentration of 20 μM was added to each well followed by 88 μL of the S. aureus USA300 or E. coli ATCC 25922 culture (a final OD600 ~0.1 in PBS). The plate was incubated at 37 °C with continuous shaking at 100 rpm in a FLUOstar Omega (BMG LABTECH Inc, Cary, NC, USA) microplate reader. The fluorescence from the plate was read every 5 min for a total duration of 2 h with excitation and emission wavelengths of 584 and 620 nm, respectively. Data were analyzed using the MARS data analysis software provided by the manufacturer and representative plots were made using the GraphPad Prism software (version: 7.0).

For series [6], the system named is S. aureus USA300. The series is classed as cell-based, Staphylococcus aureus. The settings on record: USA300. A digest of the protocol:
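Broth microdilution: log-phase cultures diluted to OD600 ~0.001 received two-fold serial peptide dilutions and were incubated overnight at 37 °C, with growth read at 630 nm. MBC was the lowest concentration giving no growth when clear wells at or above MIC were plated.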

Regarding RKIWWWWL [WW295], the “Vero Cells, concentration that caused 50% cell death (LC50)” value in series [1] is on record as >100 µM. Besides, the “Minimal Inhibitory Concentration (MIC), SA” value in series [2] turned out to be 12.5 µM. For the same sequence, the “Minimal Inhibitory Concentration (MIC), AB” value in series [3] lay in the range of 6.25 to 12.5 µM. The “outer and inner membrane permeation (nitrocefin 490 nm, ONPG 420 nm)” value in series [4] is “entered both outer and inner membranes”. In addition, the “propidium iodide fluorescence buildup (membrane permeation)” value in series [5] was “steady fluorescence buildup”. For the same sequence, the “MBC, USA300” value in series [6] was 12.5 µM.
